According to patent publication US20200023018A1, “MODULATION OF GUT MICROBIOTA IN HUNTINGTON'S DISEASE AND RETT SYNDROME” (priority 2017, published 2020):
Entries after “also recorded” stand apart in the source; their conditions may differ.

How the values were obtained:
Rett mice [1] = assay: Staining of brain sections of Rett mice for astrocyte and microglial markers; assay type: in vivo
From the text: FIG. 15A depicts staining with markers of activated astrocyte GFAP (center column) and GS (right column); Overlay of GFAP and GS is shown in left column. […] The Iba-1 and CD11 generally colocalized throughout the hippocampal region, but Iba-1 was expressed at higher levels in the vehicle-treated group (see, e.g, arrow), and lower levels in the rifaximin-treated group.
The finding can be re-confirmed and quantified for statistical analysis. Elevation of GFAP and GS is linked to astrocytes activation and inflammation. Astrocytes are recognized as therapeutic targets for neuroinflammation, neurodegeneration, and neuropsychiatric disorders. Subsets of gut microbes produce molecules, which reach the CNS, lower astrocytes activation, and subsequently reduce the production of inflammatory cytokines (Rothhamrner et al., 2016). Gut bacteria also greatly influence the development of microglia, which are the CNS immune cells (Erny et al., 2015).
For example, animals can be gavaged with known amounts of rifaximin to ensure equal delivery.

human microbiota = conditions: cited from earlier work
Rett mice [2] = assay: Semi-quantitative PCR of gut bacteria in Rett mice; assay type: in vivo
From the text: FIG. 7 is an image depicting the results of semi-quantitative PCR of Rett mice of some embodiments. […] Top panels are Eubacteria amplification used as a positive control.
FIG. 19 is an image showing the results of semi-quantitative PCR in WT and Rett mice in accordance with some embodiments herein.
Less is known about the role of Tenericutes in human health. In animals however, the presence of Tenericutes correlates with digestion of crude fiber (Niu et al., 2015).

Rett mice [3] = assay: Learning and memory of Rett mice (novel object recognition, Barnes Maze); assay type: in vivo; conditions: rifaximin-treated Rett mice; expected
Protocol: GF WT and Rett mice are also tested for these behaviors the results are compared with the rifaxitnin-treated cohorts.
We previously used this test in an environmental mouse model of autism (Hsiao et al., 2013). Rodents in general spend more time exploring a novel object than a familiar one. The ability to choose the novel object is indicative of learning and recognition memory. The novel object recognition task is conducted in an open field arena with two different kinds of objects. Both objects are generally consistent in height and volume, but are different in shape and appearance. During habituation, the animals are allowed to explore an empty arena. […] The time spent exploring each object and the discrimination index percentage are recorded. This test is used, among other experiments, to assess the cognitive ability of vehicle- and rifaximin-treated Rett mice as well as GF cohorts and quantify and compare the results.
In this test mice learn the position of a hole to escape the brightly lit open surface of the maze. […] Rett mice as well as GF cohorts and quantify and compare the results. For data acquisition the amount of time required for the animal to locate the goal box using visuo-spatial cues surrounding the maze periphery are measured. The number of errors the mice make are recorded to find the escape hole. […]

Rett mice [4] = assay: Behaviors of Rett mice (nest building, climbing, wire-mesh hanging, clasping); assay type: in vivo
Protocol: FIG. 58 is a graph depicting that rifaximin-treated mice make more attempts at climbing a wired-mesh cylinder within a 2 min time allowed. FIG. 5C is a graph depicting that testing muscle strength by wired mesh hanging assay. […] N=6. Scoring and procedures were as described in Southwell et al., 2009.
N=6. Scoring and procedures were as described in Southwell et al., 2009.
Nest building is indicative of rodents' well-being, daily activity, positive motivational state, and healthy brain functions (Jirkof, 2014).
Nest building is indicative of rodents' wellbeing, daily activity, positive motivational state, and healthy brain functions (Jirkof, 2014). […] This is consistent with the improved mobility in Rett mice observed herein. The data herein can be confirmed with additional behavioral tests, including rotarod, beam crossing, and open field. These studies can confirm benefits of rifaximin therapy on the CNS pathology and/or aberrant behaviors in Rett syndrome.
This is based on observations that male mice start displaying symptoms when they are ˜10 weeks old.
Hind limb clasping is a marker of disease progression in Rett syndrome and other diseases with motor defects. In this assay animals were suspended by the tail ˜30 cm above the tabletop for 1 min and recorded with a video camera. No clasping is scored as 0, periodic clasping and extension is scored as 1, and full hind limb clasping was scored with occasional extension is scored as 2. Severe clasping is scored as 3.

Rett mice [5] = assay: Whole body plethysmography in Rett mice; assay type: in vivo; conditions: predicted
From the text: Whole body plethysmography are used to measure breathing irregularities in Rett mice. This phenotype is common in Rett patients (Lombardi et al., 2015). An accumulating body of literature supports the potential importance of vagus nerve in the regulation of breathing. We predict that intestinal dysbiosis in Rett impairs the vagus nerve activity and exacerbate the breathing abnormalities. […] The Buxco Fine Pointe Unrestrained Whole Body Plethysmograph system from Data Sciences International (DSI; St. Paul, Minn.) are used for these measurements.

[6] = tested on: Hepatic Encephalopathy (HE) patients; conditions: clinical studies; cited from earlier work
Rett mice [7] = assay: GI pathology and metabolic changes in Rett mice; assay type: in vivo
From the text: In FIG. 14A, each point represents a mouse. N=6 each in FIG. 14C. […] N=6 for FIGS. 14E and 14F.
It was examined whether eliminating the intestinal microbiota of Rett mice alters GI pathology.

Rett mice [8] = assay: Neurogenesis in Rett mice (doublecortin and ki67 staining); assay type: in vivo
From the text: FIGS. 18A-C are a series of graphs and images depicting effects of microbiota on neurogenesis in Rett mice in accordance with some embodiments herein. FIG. 18A is a series of images depicting doublecortin staining of bilateral hippocampus in vehicle-treated (top panels) and rifaximin-treated Rett mice (bottm panels). FIG. 18B is a graph showing quantification of doublecortin positive cells in the dentate gyrus of bilateral hippocampi (2 layers) from 4 vehicle-treated and 6 rifaximin-treated animals, FIG. 18C is a series of images showing ki67 positive cells (arrows) in the SVZ (subventricular zone) of vehicle (top) and rifaximin-treated Rett mice. Boxed areas highlight regions with dramatic changes (considerably more ki67-positive cells are observed in the rifaximin-treated mose). NeuN staining for neurons (NeuN) is observed as bright foci throughout.

humans = conditions: cited from earlier work
[9] = tested on: Parkinson's disease patients; conditions: pilot study; cited from earlier work
Drosophila model of HD = assay: Aggregation of mHDx1 in a Drosophila model of HD (immunohistochemistry, Western blot); assay type: in vivo
From the text: FIG. IB is an image of a Western blot (WB) of different batch pooled larvae examined for MHDx1 aggregation. FIG. 1C is a series of images depicting immunohistochemistry similar to FIG. 1A except that adult flies were used in FIG. 1C. FIG. 1D depicts a WB similar to FIG. 1B, except that adult flies were used in FIG. 1D. The Gal4 induction system with mHDx1 (120Q) downstream of UAS (upstream activation sequence) and the gal4 transactivator downstream of Drosophila neuronal-specific promoter Elav was used to induce the expression of mHDx1 in the nervous system of offspring. In FIG. 1C, the central brain region is shown.
Without being limited by theory, it is contemplated that intestinal microbiota contributes to the aggregation of mutant HTT in the enteric nervous stem (ENS). In a Drosophila model of HD (Barbaro et al., 2015), inducing the expression of a mutant HTT exon-1 fragment (mHDx1) in the nervous system promoted aggregation in the ENS of larvae in the vicinity of the gut (FIGS. 1A and 1B). The initial appearance of aggregates in the larval ENS is thus observed.
Accordingly, it is observed herein that treatment with an antibiotic in accordance with some embodiments herein decreases aggregates of mutant Huntingtin protein.

[10] = brain sections from the cortical regions, some of the treated Rett mice, compared to vehicle
[11] = Rett mice treated after weaning for 6 weeks

CO[C@H]1/C=C/O[C@@]2(C)Oc3c(C)c(O)c4c(O)c(c5c(nc6cc(C)ccn65)c4c3C2=O)NC(=O)/C(C)=C\C=C\[C@H](C)[C@H](O)[C@@H](C)[C@@H](O)[C@@H](C)[C@H](OC(C)=O)[C@@H]1C [rifaximin]
staining for glial fibrillary acidic protein (GFAP) (Rett mice [1]; [10]): reduced staining
staining for glutamine synthetase (GS) (Rett mice [1]; [10]): reduced staining
numbers of microglia (microglial biomarkers) (Rett mice [1]; brain sections of Rett mice, some of the treated animals): numbers were reduced
Iba-1 expression (Rett mice [1]; hippocampal region of Rett mice, versus vehicle-treated group): lower levels
proliferation of probiotic species including Bifidobacteria (human microbiota): promotes the proliferation
abundance of Bifidobacteria in the GI tract (Rett mice [2]): did not increase
abundance of the phylum Tenericutes (Rett mice [2]): increased abundance
learning and memory (Rett mice [3]): learning and memory are improved
activity in the cage environment (Rett mice [4]): more active
hind limb clasping phenotype (Rett mice [4]): significantly reduced clasping phenotype
nest building (Rett mice [4]): build better nests
wire-mesh hanging assay (muscle strength) (Rett mice [4]): perform better; also recorded: enhanced muscle strength
climbing a wire-meshed cylinder (Rett mice [4]; 2 min time allowed): perform better; also recorded: make more attempts to climb
breathing defects (Rett mice [5]): ameliorate some of the breathing defects
bacterial load [6]: decreases bacterial load
leaky gut [6]: corrects leaky gut
severity of aberrant behaviors (anxiety, irritability, depression, motor symptoms, cognitive impairment) [6]: reduces the severity of several aberrant behaviors
GI and metabolic symptoms of Rett mice (Rett mice [7]; Rett mice): eliminated the GI and metabolic symptoms
inflammatory appearance of the GI tract (Rett mice [7]; Rett mice): reduces the inflammatory appearance of the GI tract
colon length (Rett mice [7]; [11]): selectively elongates the colon
intestinal obesity (Rett mice [7]; [11]): prevents intestinal obesity
accumulation of abdominal fat (Rett mice [7]; female Rett mice): prevented
weight gain (Rett mice [7]; female Rett mice): prevented
hippocampal neurogenesis (Rett mice [8]; compared to vehicle, doublecortin staining): enhanced
dendritic arborization (Rett mice [8]; compared to vehicle, hippocampus): enhanced
proliferation of cells in the subventricular zone (SVZ) (Rett mice [8]; ki67): Enhanced proliferation
safety and tolerability (humans): safe and well tolerated
motor functions [9]: improved motor functions
aggregation of mHDx1 in larvae (Drosophila model of HD; Drosophila HD larvae generated in the presence of rifaximin): lowers the aggregation of mHDx1
aggregation of mHDx1 in the CNS of adult flies (Drosophila model of HD; adult HD flies): reduces the aggregation of mHDx1
